Test results as given in the supplement of paper PMC13380429.

Experiments:
Conditions in all cases: 72 h
Vero E6 [1] = assay: drug sensitivity score (DSS) for viability; higher = more toxic; extreme values may be limits of the assay
Caco-2 [2] = assay: as above
Calu-3 [3] = assay: as above
U2OS [4] = assay: as above
HepG2 [5] = assay: as above
Vero E6 [6] = assay: cell viability relative to DMSO; higher = less toxic
Caco-2 [7] = assay: as above
Calu-3 [8] = assay: as above
U2OS [9] = assay: as above
HepG2 [10] = assay: as above
Vero E6 [11] = assay: relative viability EC50 (midpoint between 100% and the lowest measured viability); higher = less toxic
Caco-2 [12] = assay: as above
Calu-3 [13] = assay: as above
U2OS [14] = assay: as above
HepG2 [15] = assay: as above

SMILES	drug sensitivity score (Vero E6 [1])	drug sensitivity score (Caco-2 [2])	drug sensitivity score (Calu-3 [3])	drug sensitivity score (U2OS [4])	drug sensitivity score (HepG2 [5])	cell viability (Vero E6 [6]; 1 nM) [%]	cell viability (Vero E6 [6]; 10 nM) [%]	cell viability (Vero E6 [6]; 100 nM) [%]	cell viability (Vero E6 [6]; 1000 nM) [%]	cell viability (Vero E6 [6]; 10000 nM) [%]	cell viability (Caco-2 [7]; 1 nM) [%]	cell viability (Caco-2 [7]; 10 nM) [%]	cell viability (Caco-2 [7]; 100 nM) [%]	cell viability (Caco-2 [7]; 1000 nM) [%]	cell viability (Caco-2 [7]; 10000 nM) [%]	cell viability (Calu-3 [8]; 1 nM) [%]	cell viability (Calu-3 [8]; 10 nM) [%]	cell viability (Calu-3 [8]; 100 nM) [%]	cell viability (Calu-3 [8]; 1000 nM) [%]	cell viability (Calu-3 [8]; 10000 nM) [%]	cell viability (U2OS [9]; 1 nM) [%]	cell viability (U2OS [9]; 10 nM) [%]	cell viability (U2OS [9]; 100 nM) [%]	cell viability (U2OS [9]; 1000 nM) [%]	cell viability (U2OS [9]; 10000 nM) [%]	cell viability (HepG2 [10]; 1 nM) [%]	cell viability (HepG2 [10]; 10 nM) [%]	cell viability (HepG2 [10]; 100 nM) [%]	cell viability (HepG2 [10]; 1000 nM) [%]	cell viability (HepG2 [10]; 10000 nM) [%]	relative viability EC50 (Vero E6 [11]) [µM]	relative viability EC50 (Caco-2 [12]) [µM]	relative viability EC50 (Calu-3 [13]) [µM]	relative viability EC50 (U2OS [14]) [µM]	relative viability EC50 (HepG2 [15]) [µM]
C[C@H](N)Cc1cccc(O)c1 [gepefrine]	0	0	0	0	0	99.7	96	98.1	101	111	91.3	104	88	99.1	111	93.4	100	102	99.7	88.7	88	93.9	90.3	95	103	103	97.2	96.8	104	109	> 10	> 10	> 10	> 10	> 10
Oc1noc2c1CCNC2 [gaboxadol]	0	0	0	0	0	96.6	95.8	96.2	94.6	106	92.6	99	91.6	104	95.3	99.7	91.4	103	103	99.4	102	100	94.3	98.3	94.2	105	101	88.2	101	98.1	> 10	> 10	> 10	> 10	> 10
Cc1cc(CC(=O)O)n(C)c1C(=O)c1ccc(Cl)cc1 [zomepirac]	0	7.3	0	0	0.1	105	94.6	104	94.4	93.7	94.4	97.7	75.3	74.4	77.8	94.7	99.6	97.4	94.3	103	96.6	101	92.9	97.7	99.6	88	84.9	84.7	101	91.6	> 10		> 10	> 10	> 10
COc1ncc(-c2ccc3nccc(-c4ccnnc4)c3c2)cc1NS(=O)(=O)c1ccc(F)cc1F	24.1	29.8	32.5	26.2	22.2	90.2	80.1	38.9	22.6	15.1	84.8	60.2	19	25.3	28.8	79.4	47.4	22.2	19.5	17.4	91	80.3	34.2	13.9	0.9	98.8	77.2	46.3	25	29.2	0.0351	0.0081	0.0044	0.0484	0.0297
COCCCOc1cc(C[C@@H](C[C@H](N)[C@@H](O)C[C@H](C(=O)NCC(C)(C)C(N)=O)C(C)C)C(C)C)ccc1OC [aliskiren-hemifumarate]	0	3.7	0	0	0	93.8	95.3	91.8	93.9	93.2	84.8	81.9	70.4	89.1	100	88.8	101	96.5	96	88	97.2	102	101	103	93.7	111	103	103	87.5	100	> 10		> 10	> 10	> 10
C=C1CC[C@H](O)C/C1=C/C=C1\CCC[C@]2(C)[C@@H]([C@H](C)/C=C/[C@H](C)C(C)C)CC[C@@H]12 [ergocalciferol]	0		0	0	0	102	105	96.2	93.6	101						86.5	89.2	80.2	108	104	99.3	99.6	96.2	100	94.3	114	99.3	112	97.5	93	> 10		> 10	> 10	> 10
O=C(Nc1ccc([N+](=O)[O-])cc1Cl)c1cc(Cl)ccc1O [niclosamide]	4.2	5.6	0.6	1.2	5.3	101	99.7	102	102	20	101	102	95.3	93.7	17.6	106	98.4	92.2	91.3	86.2	101	104	97.2	103	68.9	104	99.4	109	98	9.9	3.34	2.54	> 10		3.01
O=C1[C@H]2CCCC[C@H]2C(=O)N1CCCCN1CCN(c2nsc3ccccc23)CC1 [perospirone]	0	3.4	0	0	2	104	98.7	102	101	107	86.7	87	91.8	92.9	65.9	94.1	101	99.3	98.7	89	96.2	99.7	104	92.9	92.8	97.4	88.9	89.1	89.1	86.1	> 10		> 10	> 10	> 10
CCOc1ccccc1-n1c(C(C)N2CCN(C(=O)COc3ccc(Cl)cc3)CC2)nc2ccccc2c1=O (stereo not given) [erastin]	5.1	3.5	7.8		6.9	96	99.4	95.8	97.2	15.5	103	94.8	96.9	97.1	43.4	113	97.4	109	81.3	13.5						96.6	102	109	89.8	5.5	2.92	2.76	1.67		2.27
O[C@H]1[C@H](O)[C@@H](O)CN2CC[C@H](O)[C@H]12 [castanospermine]	0	0	0		0	97.4	99.3	91	102	91.8	100	99	106	98.2	100	102	96.6	96.9	103	104						101	99.3	102	110	97.5	> 10	> 10	> 10		> 10
CCCCCOc1ccc(-c2cc(-c3ccc(C(=O)N[C@H]4C[C@@H](O)[C@@H](O)NC(=O)[C@@H]5[C@@H](O)[C@@H](C)CN5C(=O)[C@H]([C@H](O)CC(N)=O)NC(=O)[C@H]([C@H](O)[C@@H](O)c5ccc(O)c(OS(=O)(=O)O)c5)NC(=O)[C@@H]5C[C@@H](O)CN5C(=O)[C@H]([C@@H](C)O)NC4=O)cc3)no2)cc1 [micafungin]	0		0	0	0	99.2	101	106	97.2	92.9						106	108	98.3	99.4	115	104	102	103	101	99.4	98.4	117	106	81.8	109	> 10		> 10	> 10	> 10
CSc1nc(-c2ccc(F)cc2)c(-c2ccnc(N[C@@H](C)c3ccccc3)c2)[nH]1 [ML3403]	0	1.9	0	0	0.1	102	105	101	99.8	88.7	94.6	93.4	97.3	94.2	74.2	101	99.1	103	94.5	89.8	99.9	99.1	100	94.8	90.9	100	101	97.6	105	86.5	> 10		> 10	> 10	> 10
Cc1c(NC(=O)c2cc3c(s2)CCCC3)cccc1-c1cn(C)c(=O)c(Nc2ccc(C3C(=O)N(C)CCN3C)cc2)n1 (stereo in doubt) [GDC-0834]	0	1.5	0	0	0	105	101	104	97.4	105	104	98.3	99.9	96.3	74.6	96.6	100	96.2	95.4	95.8	103	99.1	98.5	101	92.7	106	95.6	94.7	107	97.2	> 10		> 10	> 10	> 10
Nc1cccc(CNC(=O)c2ccc(Oc3ccc(OCc4cccc(F)c4)cc3)nc2)c1	0	0.9	0.7	0	1.7	93.4	99.9	98.8	102	99.3	100	102	91.5	107	71.2	104	101	96.1	97.7	81.9	99	106	94.8	101	92.1	92.9	102	103	91.8	77.9	> 10		> 10	> 10	> 10
